From paper PMC10066365, “Nemacol is a small molecule inhibitor of C. elegans vesicular acetylcholine transporter with anthelmintic potential” (Nature Communications, 2023)
“And” between values parts separate entries of the source, which are not always exact repeats. Identical values can stand only once.

Tests used:
[1] = system: Dirofilaria immitis microfilariae; assay: Dirofilaria immitis microfilariae motility (optical flow, ImageXpress/wrmXpress) and CellTox Green viability, second lab
Experimental: We also conducted Dirofilaria immitis experiments in the lab of M. Zamanian (Univeristy of Wisconsin). For this experiment, shown in Supplementary Fig. 6, Microfilaremic blood was obtained from the NIH/NIAID Filariasis Research Reagent Resource Center (FR3)[70]. Blood was drawn and shipped approximately 24 h before use. Upon arrival, blood was warmed to 37 °C then combined with a 0.85% sodium chloride and 0.2% saponin solution in a 1:11 volumetric ratio and incubated in a 37 °C water bath for 15 min. The hemolyzed solution was passed through a 25 mm 5.0 μm pore size syringe filter. The used filter disks were transferred to petri dishes filled with RPMI 1640 culture media with 1% penicillin/streptomycin (0.1 mg/mL) and incubated at 37 °C for 2 h while microfilariae (mf) separated from the disks. Disks were discarded and mf titered to 5 mf/μL.
Aliquots of titered mf were incubated on a heating block at 60 °C for 1 h to produce heat killed positive controls. One μL of 100× drug was aliquoted to each well of a 96-well plate; 100 μL of live mf were added to treatment wells and 100 μL of heat killed mf were added to positive control wells (for a total of 500 mf/well). Plates were sealed with a breathable plate cover and maintained at 37 °C and 5% atmospheric CO2. […] Image analysis and the subsequent measurement of optical flow and fluorescence was performed using wrmXpress v1.3.02[71]. […]

C. elegans = C. elegans 3-day liquid viability assay, Nemacol-1 x Ivermectin matrix, wild type; conditions: for total animals normalized to corresponding controls: N2 wild type; for nemacol-1 x ivermectin matrix dose-response raw data: ivermectin 0 (row head 0), 3 replicate columns
HEK293 cells = conditions: cited from earlier work
[2] = Caenorhabditis elegans, read-out: C. elegans viability

## O=[N+]([O-])c1ccc(N2CCN(CC3CCCCC3)CC2)cc1 [Nemacol-1]
[1]
  impact on IVM's ability to paralyze Dirofilaria: no impact
  optical_flow: 64671429 and 95056554 and 124845938 and 124294468
C. elegans; 3-day viability, wild type
  fold lowering of Ivermectin's EC50: 3 fold
C. elegans; [2]
  viability at 15 µM: 97%
  viability at 30 µM: 97%
  viability at 60 µM: 83%
C. elegans; Ivermectin + Nemacol-1, wild type, threshold of synergy 10
  global ZIP synergy score: 20.0
C. elegans; nemacol-1 0.9375, ivermectin 0 uM
  total animals normalized to corresponding controls: 1.1
C. elegans; nemacol-1 1.875, ivermectin 0 uM
  total animals normalized to corresponding controls: 1.1
C. elegans; nemacol-1 3.75, ivermectin 0 uM
  total animals normalized to corresponding controls: 1.2
C. elegans; nemacol-1 7.5, ivermectin 0 uM
  total animals normalized to corresponding controls: 1.1
C. elegans; nemacol-1 15, ivermectin 0 uM
  total animals normalized to corresponding controls: 0.9
C. elegans; nemacol-1 30, ivermectin 0 uM
  total animals normalized to corresponding controls: 0.9
C. elegans; wt (N2) + 15 uM nemacol
  nemacol-1 x ivermectin matrix dose-response raw data: 100.0 and 76.7 and 84.0
C. elegans; wt (N2) + 30 uM nemacol
  nemacol-1 x ivermectin matrix dose-response raw data: 102.1 and 93.3 and 70.0
C. elegans; wt (N2) + 60 uM nemacol
  nemacol-1 x ivermectin matrix dose-response raw data: 119.1 and 66.7 and 70.0
C. elegans; wt (N2) + 3.75 nemacol
  nemacol-1 x ivermectin matrix dose-response raw data: 102.1 and 150.0 and 114.0

## CCC1CCC(N2CCN(c3ccc([N+](=O)[O-])cc3)CC2)CC1 (stereo not shown) [Nemacol-2]
HEK293 cells
  result in previous counter-screens: adverse effects
HEK293 cells; ref Burns et al., 2015
  activity in preliminary HEK293 cell-based assays: higher activity
